Reference: US8735149B2, “Motor neurons developed from stem cells” (Hadasit Medical Research Services & Development Limited, priority 2008, dated 2014)

Columns and labels:
Format in all cases: cell-based, human
[1] = tested on: hESC-derived neural precursors; experiment: RT-PCR of Olig2, Ngn2 and HB9 transcripts after early neural induction and 2-3 weeks treatment
Experimental: (§1) To develop spheres enriched for neural precursors, hESC colonies were removed intact from the feeders, 6 days after passage, with collagenase IV. They were cultured in low adherent culture dishes (HydroCell) in DMEM/F12 (1:1) basal medium (Invitrogen), supplemented with 2% B27, 2 mM glutamine, 50 units/ml penicillin, 50 μg/ml streptomycin (all from Invitrogen), and 20 ng/ml rh-FGF-2 (Peprotech). In some experiments the medium was also supplemented with noggin 600-700 ng/ml (both from R&D) for 14-16 days.
The medium was further supplemented with 1 μM retinoic acid (“RA”; Sigma) or 0.5 μM purmorphamine (“Pur”; a hedgehog agonist; Merck), or combination of Pur and RA, for 3 weeks.
Total RNA was extracted from free-floating clusters after 2 and 3 weeks of treatment with RA, Pur or both. Total RNA was isolated using TRI-reagent (Sigma) followed by treatment with RNase-free DNase (Ambion). cDNA synthesis was carried out using Moloney murine leukemia virus (M-MLV) reverse transcriptase and random primers, according to the manufacturers' instructions (Promega). To analyze relative expression of different mRNAs, the amount of cDNA was normalized based on the signal from GAPDH mRNA. PCR was carried out using standard protocols with Taq DNA Polymerase (Promega). Amplification conditions were as follows: denaturation at 94° C. for 30 seconds, annealing at 55° C. for 30 seconds, and extension at 72° C. for 45 seconds. The number of cycles varied between 30 and 40, depending on particular mRNA abundance. Primer sequences (forward and reverse 5′-3′) were as shown in Table 1 (sequence identification number (SEQ ID NO.) according to the Sequence Listing is also provided):
Following this initial induction of early neural differentiation, the role of purmorphamine (Pur) and retinoic acid (RA) in further specification towards a caudal and ventral fate was examined. The neural precursors were further cultured 2-3 weeks with Pur, RA, or the combination of RA & Pur as well as with FGF2 as a control. Caudalization and ventralization were studied by analyzing the expression of Olig-2, Ngn2 and HB9 transcripts (FIGS. 2A, 2B and 2C). […] Without being bound by theory, induction of expression of these transcription factors by RA after 3 weeks (lane 6 in FIGS. 2A and 2C) may be related to RA-mediated induction of endogenous SHH gene expression.

[2] = tested on: hESC-derived neural precursors; experiment: Immunostaining for Olig-2 and Isl-1 after early neural induction and 3 weeks treatment; settings: treatment for 3 weeks
Experimental: To develop spheres enriched for neural precursors, hESC colonies were removed intact from the feeders, 6 days after passage, with collagenase IV. They were cultured in low adherent culture dishes (HydroCell) in DMEM/F12 (1:1) basal medium (Invitrogen), supplemented with 2% B27, 2 mM glutamine, 50 units/ml penicillin, 50 μg/ml streptomycin (all from Invitrogen), and 20 ng/ml rh-FGF-2 (Peprotech). In some experiments the medium was also supplemented with noggin 600-700 ng/ml (both from R&D) for 14-16 days. […] The medium was further supplemented with 1 μM retinoic acid (“RA”; Sigma) or 0.5 μM purmorphamine (“Pur”; a hedgehog agonist; Merck), or combination of Pur and RA, for 3 weeks. The following primary antibodies were used: polyclonal rabbit anti Isl1 (1:750, Abeam), mouse anti HB9 (1:50, DSHB), polyclonal goat anti CHAT (1:200, R&D), and goat anti olig2 (1:75, R&D). The following secondary antibodies: goat anti-rabbit conjugated to Cy-3 (1:1000, Jackson), goat anti-mouse conjugated to Cy-3 (1:500, Jackson), donkey anti goat conjugated to rhodamin (1:300, Jackson), Texas red or Alexa 488-conjugated goat anti-mouse IgM (1:100, Jackson), goat anti-rabbit IgG (1:100, Molecular Probes), goat anti-mouse IgG (1:100, Molecular Probes) or donkey anti-goat IgG (1:250, Jackson) were used as secondary antibodies, where appropriate.

[3] = tested on: hESC-derived neural precursors; experiment: Immunostaining for HB9 after 1 week RA, 3 weeks treatment and 4-6 weeks maturation in MNM; settings: RA 1 week, then 3 weeks treatment, then maturation 4-6 weeks in MNM
Experimental: (§2) Alternatively, the spheres were cultured in the same medium supplemented with 1 μM RA (Sigma) for 1 week. Followed by further culturing the spheres in neurobasal medium (Invitrogen) supplemented with 2 mM L-glutamine (Invitrogen), 50 units/ml penicillin (Invitrogen), 50 μg/ml streptomycin (Invitrogen), 1% non-essential amino-acids (Invitrogen), N2 (Invitrogen), 1 μM db-cAMP (Sigma) and 1 μM RA (Sigma), or 0.5 μM Pur (Merck), or combination of RA and Pur, for 2-3 weeks.
(§3) The spheres were then further cultured in the same neurobasal medium supplemented with 2 mM L-glutamine, 50 units/ml penicillin, 50 μg/ml streptomycin, 1% non-essential amino-acids, 1% N2 (all from Invitrogen), 1 μM db-cAMP and 10 ng/ml of BDNF, GDNF and IGF-I (all from Peprotech). This medium was designated as motor neuron medium (MNM). The clusters could be cultured in suspension in this medium for prolonged periods (5 months). At various time points along this period the cells were plated on 10 μg/ml Poly-D-Lysine (Sigma) and 5 μg/ml laminin (Sigma) for terminal differentiation in the presence or absence of the γ-secretase inhibitor [N-(3,5-Difluorophenacetyl)-L-alanyl]-S-phenylglycine t-butyl ester (DAPT; 1 μM, Sigma).
The following primary antibodies were used: polyclonal rabbit anti Isl1 (1:750, Abeam), mouse anti HB9 (1:50, DSHB), polyclonal goat anti CHAT (1:200, R&D), and goat anti olig2 (1:75, R&D). […]

hESC clusters = experiment: Early neural induction of hESC clusters (PSA-NCAM expression); settings: chemically defined medium with FGF2 with or without noggin, two weeks
Experimental: as §1
To induce the differentiation of hESCs towards motor neurons, hESC clusters were initially cultured in chemically defined medium supplemented with FGF2 with or without noggin for two weeks. At the end of this culture period the clusters acquired round morphology typical of neural spheres.

[4] = tested on: hESC-derived neural progenitors with caudal and ventral specification; experiment: Terminal motor neuron differentiation of plated spheres in the presence of DAPT (HB9, CHAT immunostaining)
Experimental: as §3
(§4) The following primary antibodies were used: polyclonal rabbit anti Isl1 (1:750, Abeam), mouse anti HB9 (1:50, DSHB), polyclonal goat anti CHAT (1:200, R&D), and goat anti olig2 (1:75, R&D).
(§5) The following secondary antibodies: goat anti-rabbit conjugated to Cy-3 (1:1000, Jackson), goat anti-mouse conjugated to Cy-3 (1:500, Jackson), donkey anti goat conjugated to rhodamin (1:300, Jackson), Texas red or Alexa 488-conjugated goat anti-mouse IgM (1:100, Jackson), goat anti-rabbit IgG (1:100, Molecular Probes), goat anti-mouse IgG (1:100, Molecular Probes) or donkey anti-goat IgG (1:250, Jackson) were used as secondary antibodies, where appropriate.
To further enhance the motor neuron differentiation, caudalization and ventralization were followed by blocking Notch signaling with the γ-secretase inhibitor DAPT. After 2-3 weeks of maturation in MNM, the spheres were plated on laminin and terminally differentiated in the presence of DAPT for 7-10 days.

[5] = tested on: hESC-derived neural spheres; experiment: Olig-2, HB9 and CHAT expression after caudalization, ventralization and maturation in MNM
Experimental: as §2, §3, §4, §5
In a similar set of experiments, after initial early neural induction in the presence of FGF2, the spheres were induced to take a caudal fate by 7 days treatment with RA. […]

[6] = DAPT 1 μM for 7-10 days after 2-3 weeks maturation in MNM, plated on laminin
[7] = RA 7 days, Pur with or without RA 2-3 weeks, 4 weeks maturation in MNM, plated on laminin, no DAPT

Row | Molecule | expression of HB9 transcripts ([1]; after 2 weeks of treatment) | expression of Ngn2 transcripts ([1]; after 2 weeks of treatment) | expression of Olig-2 transcripts ([1]; after 2 weeks of treatment) | expression of HB9 transcripts ([1]; after 3 weeks of treatment) | expression of Ngn2 transcripts ([1]; after 3 weeks of treatment) | expression of Olig-2 transcripts ([1]; after 3 weeks of treatment) | cells expressing Isl-1 [2] | cells expressing Olig-2 [2] | cells expressing HB9 protein [3] | neural precursor cells expressing PSA-NCAM within the clusters (hESC clusters) | increase of percentage of HB9+ cells [4, 6] | percentage of HB9+ cells [4, 6] | neurite outgrowth and branching from CHAT expressing cells ([4]; DAPT during terminal differentiation) | cells within the spheres expressing Olig-2 ([5]; 7 days RA, then Pur in the presence or absence of RA for 2-3 weeks) | cells expressing CHAT [5, 7] | cells expressing HB9 [5, 7]
1 | FGF2: basic fibroblast growth factor, used for early neural induction and as control treatment | did not induce the expression | did not induce the expression | did not induce the expression | did not induce the expression | did not induce the expression | did not induce the expression | not expressed | did not induce the expression | not expressed | highly enriched | – | – | – | – | – | –
2 | C[C@H](NC(=O)Cc1cc(F)cc(F)c1)C(=O)N[C@H](C(=O)OC(C)(C)C)c1ccccc1 [DAPT, [N-(3,5-Difluorophenacetyl)-L-alanyl]-S-phenylglycine t-butyl ester] | – | – | – | – | – | – | – | – | – | – | 1.5-2 folds | 40-70 % of total cells | significantly augmented | – | – | –
3 | c1ccc2c(Oc3nc(Nc4ccc(N5CCOCC5)cc4)c4ncn(C5CCCCC5)c4n3)cccc2c1 [Pur, purmorphamine] | induced the expression | – | induced the expression | induced the expression | – | induced the expression | – | – | 66 % of total cells | – | – | – | – | 23-54 % of the cells | 20-50 % of the cells | 20-50 % of the cells
